Where two headings read alike, the source gives them in different places.
Columns and labels:
[1] = test system: rice blast (Pyricularia oryzae); format: in vivo; conditions: for Lesion area ratio (%) / Protection value: rice plants
[2] = test system: cucumber gray mold (Botrytis cinerea); test: Test Example 9: cucumber gray mold, single and combined fungicides (Table 6); conditions: for Lesion area ratio (%) / Protection value: young cucumber (Yotsuba)
Method: (§1) The protection value was calculated by means of the equation as follows. protection value=(1−(lesion area in the division treated with fungicide)/lesion area in the division not treated with fungicide))×100
(§2) An estimated protection value of a mixture of active ingredients was calculated according to the Colby's formula [R. S. Colby, Weeds 15, 20-22 (1967)] and compared with the experimental protection value.
[wherein, E is the estimated protection value (additive effect) which will be obtained when the active ingredients A and B are used in a mixture in concentrations a and b, respectively x is the protection value obtained when the active igredient A is used in a concentration a, and y is the protection value obtained when the active ingredient B is used in a concentration b. […] A protection value equal 0 means that the lesion area ratio of the plants in the test group is as large as that of the plants in the untreated control group. A protection value equals 100 means that the plants in the test group are free from the disease.
The test compound (denoted by the compound No. in Table 1 above), azoxystrobin, mepanipyrim and iprodione, individually or in combination, were dissolved in dimethylformamide (final concentration was 1 wt %). Xylene (final concentration was 0.02 wt %) and Tween 20 (Trade Name) (final concentration was 0.02 wt %) were added to the solution. The resulting mixture was diluted with water to give a test solution which contained a given concentration (ppm) of the active ingredient. A spreader adjuvant SINDAIN (Trade Name, Manufactured by Takeda Chemical Industries, Ltd, and comprises 20 wt % of polyoxyethylene nonylphenyl ether and 12 wt % of calcium ligninsulfonate) was added to this solution in the final concentration of 0.05 wt % to give a spray agent.
The spray agent was sprayed in an amount of 10 ml/pot on young cucumber (cultural variety: Yotsuba) cultivated for 3 to 4 weeks in a greenhouse. After drying up in a room, the treated cucumbers were inoculated with pathogenic fangi on the leaves by placing the mycelial disks which were cut out from a PSA medium grown with Botrytis cinerea and then kept in a greenhouse at 28° C. for 3 days. Then, the ratio of the lesion area on the plants treated with the test compound and that on the plants treated with another substances to that on untreated plants was investigated.

[3] = test system: apple Alternaria leaf blotch (Alternaria mali); test: Test Example 5: apple Alternaria leaf blotch, single and combined fungicides (Table 2); format: in vivo; conditions: for Lesion area ratio (%) / Protection value: apple seedlings; for protection effect in combination compared with estimated protection effect (synergy): in combination with chlorothalonil, hexaconazole and azoxystrobin
[4] = test system: apple Alternaria leaf blotch (Alternaria mali); test: Test Example 6: apple Alternaria leaf blotch, single and combined fungicides (Table 3); conditions: for Lesion area ratio (%) / Protection value: apple leaves; for protection effect in combination compared with estimated protection effect (synergy): in combination with mepanipyrim (No. 289) and iminoctadine (No. 97), respectively
Method: as §1, §2
[wherein, E is the estimated protection value (additive effect) which will be obtained when the active ingredients A and B are used in a mixture in concentrations a and b, respectively x is the protection value obtained when the active igredient A is used in a concentration a, and y is the protection value obtained when the active ingredient B is used in a concentration b.

[5] = test system: rice Helminthosporium leaf spot (Cochliobolus miyabeanus); test: Test Example 8: rice Helminthosporium leaf spot, single and combined fungicides (Table 5); format: in vivo; conditions: for Lesion area ratio (%) / Protection value: young rice plants

CO/C=C(/C(=O)OC)c1ccccc1Oc1cc(Oc2ccccc2C#N)ncn1 [Azoxystrobin, azoxystrobin, reference compound]
Lesion area ratio (%) ([1]; 0.1 ppm active ingredient): 11.0% | Protection value ([1]; 0.1 ppm active ingredient): 56 | Lesion area ratio (%) ([1]; 0.5 ppm active ingredient): 5.0% | Protection value ([1]; 0.5 ppm active ingredient): 80 | Lesion area ratio (%) ([2]; 10 ppm active ingredient): 3.9% | Protection value ([2]; 10 ppm active ingredient): 69.8 | Lesion area ratio (%) ([3]; 6.3 ppm active ingredient): 25.8% | Protection value ([3]; 6.3 ppm active ingredient): 56 | Lesion area ratio (%) ([3]; 25 ppm active ingredient): 25.0% | Protection value ([3]; 25 ppm active ingredient): 58

N#Cc1c(Cl)c(Cl)c(Cl)c(C#N)c1Cl [Chlorothalonil, chlorothalonil, reference compound]
Lesion area ratio (%) ([3]; 6.3 ppm active ingredient): 43.5% | Protection value ([3]; 6.3 ppm active ingredient): 27 | Lesion area ratio (%) ([3]; 25 ppm active ingredient): 60.0% | Protection value ([3]; 25 ppm active ingredient): 0 | Lesion area ratio (%) ([3]; 100 ppm active ingredient): 16.8% | Protection value ([3]; 100 ppm active ingredient): 72

Cc1ccc(S(=O)(=O)N(C)c2ccccc2[N+](=O)[O-])cc1 [Compound No. 38, N-Methyl-2′-nitro-p-toluenesulfonanilide]
melting point: 131.5 to 132.5 °C

Cc1ccc(S(=O)(=O)N(c2ccc(Cl)cc2C#N)C(C)C)cc1 [Compound No. 97, 4′-Chloro-2′-cyano-N-isopropyl-p-toluenesulfonanilide]
Lesion area ratio (%) ([4]; 0.4 ppm active ingredient): 25.0% | Protection value ([4]; 0.4 ppm active ingredient): 65 | Lesion area ratio (%) ([4]; 1.6 ppm active ingredient): 19.2% | Protection value ([4]; 1.6 ppm active ingredient): 73 | Lesion area ratio (%) ([4]; 6.3 ppm active ingredient): 8.0% | Protection value ([4]; 6.3 ppm active ingredient): 89 | protection effect in combination compared with estimated protection effect (synergy) [4]: higher protection effect

CCN(c1ccc(SC)cc1[N+](=O)[O-])S(=O)(=O)c1ccc(C)cc1 [Compound No. 227, N-Ethyl-4′-methylthio-2′-nitro-p-toluenesulfonanilide]
melting point: 135 to 136 °C

CCN(c1ccc(Cl)cc1[N+](=O)[O-])S(=O)(=O)c1ccc(C)cc1 [Compound No. 289, 4′-Chloro-N-ethyl-2′-nitro-p-toluenesulfonanilide]
Lesion area ratio (%) ([1]; 100 ppm active ingredient): 25.0% | Protection value ([1]; 100 ppm active ingredient): 0 | Lesion area ratio (%) ([1]; 200 ppm active ingredient): 25.0% | Protection value ([1]; 200 ppm active ingredient): 0 | protection effect in combination compared with estimated protection effect (synergy) ([1]; in combination with azoxystrobin): higher protection effect | Lesion area ratio (%) ([4]; 0.4 ppm active ingredient): 18.3% | Protection value ([4]; 0.4 ppm active ingredient): 74 | Lesion area ratio (%) ([4]; 1.6 ppm active ingredient): 13.7% | Protection value ([4]; 1.6 ppm active ingredient): 81 | Lesion area ratio (%) ([4]; 6.3 ppm active ingredient): 9.3% | Protection value ([4]; 6.3 ppm active ingredient): 87 | protection effect in combination compared with estimated protection effect (synergy) [4]: higher protection effect | Lesion area ratio (%) ([2]; 100 ppm active ingredient): 13.2% | Protection value ([2]; 100 ppm active ingredient): 0.0 | protection effect in combination compared with estimated protection effect (synergy) ([2]; in combination with azoxystrobin, mepanipyrim and iprodione): higher protection effect | Lesion area ratio (%) ([5]; 25 ppm active ingredient): 5.0% | Protection value ([5]; 25 ppm active ingredient): 71.4 | Lesion area ratio (%) ([5]; 100 ppm active ingredient): 4.5% | Protection value ([5]; 100 ppm active ingredient): 74.3 | protection effect in combination compared with estimated protective effect (synergy) ([5]; in combination with ferimzone): higher protection effect | Lesion area ratio (%) ([3]; 0.4 ppm active ingredient): 36.9% | Protection value ([3]; 0.4 ppm active ingredient): 38 | Lesion area ratio (%) ([3]; 1.6 ppm active ingredient): 20.8% | Protection value ([3]; 1.6 ppm active ingredient): 65 | Lesion area ratio (%) ([3]; 6.3 ppm active ingredient): 3.8% | Protection value ([3]; 6.3 ppm active ingredient): 94 | Lesion area ratio (%) ([3]; 25 ppm active ingredient): 4.3% | Protection value ([3]; 25 ppm active ingredient): 93 | protection effect in combination compared with estimated protection effect (synergy) [3]: higher protection effect

Cc1ccc(S(=O)(=O)N(c2ccc([N+](=O)[O-])cc2C#N)C(C)C)cc1 [Compound No. 421]
Lesion area ratio (%) ([3]; 0.4 ppm active ingredient): 24.7% | Protection value ([3]; 0.4 ppm active ingredient): 58 | Lesion area ratio (%) ([3]; 1.6 ppm active ingredient): 20.0% | Protection value ([3]; 1.6 ppm active ingredient): 66 | Lesion area ratio (%) ([3]; 6.3 ppm active ingredient): 2.3% | Protection value ([3]; 6.3 ppm active ingredient): 96 | Lesion area ratio (%) ([3]; 25 ppm active ingredient): 0.3% | Protection value ([3]; 25 ppm active ingredient): 99 | protection effect in combination compared with estimated protection effect (synergy) [3]: higher protection effect

CON(c1ccc([N+](=O)[O-])cc1Cl)S(=O)(=O)c1cc(Cl)ccc1Cl [Compound No. 528, N-Methoxy-4′-nitro-2,2′,5-trichlorobenzenesulfonanilide]
melting point: 136 to 138 °C

C/C(=N/Nc1nc(C)cc(C)n1)c1ccccc1C [Ferimzone, ferimzone, reference compound]
Lesion area ratio (%) ([5]; 25 ppm active ingredient): 1.5% | Protection value ([5]; 25 ppm active ingredient): 91.4 | Lesion area ratio (%) ([5]; 100 ppm active ingredient): 0.4% | Protection value ([5]; 100 ppm active ingredient): 98.0

CCCCC(O)(Cn1cncn1)c1ccc(Cl)cc1Cl (stereo not drawn) [Hexaconazole, hexaconazole, reference compound]
Lesion area ratio (%) ([3]; 0.4 ppm active ingredient): 70.0% | Protection value ([3]; 0.4 ppm active ingredient): 0 | Lesion area ratio (%) ([3]; 1.6 ppm active ingredient): 66.7% | Protection value ([3]; 1.6 ppm active ingredient): 0 | Lesion area ratio (%) ([3]; 6.3 ppm active ingredient): 21.7% | Protection value ([3]; 6.3 ppm active ingredient): 63

N=C(N)NCCCCCCCCNCCCCCCCCNC(=N)N [Iminoctadine, iminoctadine, reference compound]
Lesion area ratio (%) ([4]; 0.4 ppm active ingredient): 66.7% | Protection value ([4]; 0.4 ppm active ingredient): 6 | Lesion area ratio (%) ([4]; 1.6 ppm active ingredient): 33.8% | Protection value ([4]; 1.6 ppm active ingredient): 52 | Lesion area ratio (%) ([4]; 6.3 ppm active ingredient): 35.0% | Protection value ([4]; 6.3 ppm active ingredient): 51

CC(C)NC(=O)N1CC(=O)N(c2cc(Cl)cc(Cl)c2)C1=O [Iprodione, iprodione]
Lesion area ratio (%) ([2]; 10 ppm active ingredient): 3.7% | Protection value ([2]; 10 ppm active ingredient): 71.3

CC#Cc1cc(C)nc(Nc2ccccc2)n1 [Mepanipyrim, mepanipyrim, reference compound]
Lesion area ratio (%) ([4]; 0.4 ppm active ingredient): 68.3% | Protection value ([4]; 0.4 ppm active ingredient): 4 | Lesion area ratio (%) ([4]; 1.6 ppm active ingredient): 73.3% | Protection value ([4]; 1.6 ppm active ingredient): 0 | Lesion area ratio (%) ([4]; 6.3 ppm active ingredient): 19.3% | Protection value ([4]; 6.3 ppm active ingredient): 73 | Lesion area ratio (%) ([2]; 10 ppm active ingredient): 6.0% | Protection value ([2]; 10 ppm active ingredient): 53.8
